Results as given in patent publication US9975884B2, “Kojic acid-derived mannich bases with biological effect” (priority 2015, dated 2018).
Converted amounts (≈) assume the structure as drawn. Where two headings read alike, the source gives them in different places.

How the values were obtained:
M. avium (ATCC 15769) = experiment: Antimycobacterial activity; type: cell-based, Mycobacterium avium; conditions: for MIC: Mycobacterium avium
tyrosinase = type: biochemical
elastase = experiment: Elastase enzyme inhibition; type: biochemical
[1] = Phosphomolybdenum reduction antioxidant power (PRAP); conditions: for Phosphomolybdenum Reduction Antioxidant Power (Absorbance at 600 nm ± S.S): 1000 μg/ml
collagenase = experiment: Collagenase enzyme inhibition; type: biochemical
Protocol: Physical properties of the compounds such as efficiency of synthesis reactions and melting points are determined. […] Antidermatophytic activity of the compounds against Trichophyton mentagrophytes var. erinacei, Epidermophyton floccosum and Microsporum gypseum as well as their antimycobacterial activity against Mycobacterium tuberculosis H37Rv (ATCC 27294) and M. avium (ATCC 15769) are analyzed under non-toxic concentrations using MRC-5 and He-La cell lines. Antityrosinase activity thereof is determined by spectrophotometric method using L-DOPA as a substrate. Antioxidant activity is determined by the methods of 2,2-diphenyl-1-picrilhydrasil (DPPH), N,N-dimethyl-p-phenylenediamine (DMPD) radical scavenging activity, metal chelation effect, iron-(FRAP), phosphomolybdenum-(PRAP) reducing antioxidant power. Elastase and collagenase enzyme inhibitions are performed to determine anti-aging activity. Due to their antityrosinase, antioxidant, anti-aging, antidermatophytic and antimycobacterial effects, the compounds may be used in medicine, cosmeceutical, food and textile industry.

Metal chelation effect = conditions: for iron chelation effect: dose amount of 1000 μg/ml
[2] = DMPD radical scavenging effect; conditions: 1000 μg/ml
[3] = DPPH free radical scavenging effect; conditions: 1000 μg/ml
[4] = Iron reduction antioxidant power (FRAP); conditions: 1000 μg/ml
Solubility in solvents = type: physicochemical
Protocol: Melting point: 180-1<*>C, Yield: 90%. White powder crystals. Insoluble in water, low-solubility in methanol, ethanol and acetone, and soluble in chloroform.
Melting point 196-7° C., Yield: 93%. White powder crystals. Insoluble in water, methanol, ethanol and acetone, but soluble in chloroform.

[5] = ATCC15769, value column 8 of the table, read-out: MIC against M. avium

Molecule	elastase enzyme inhibition (elastase)	antioxidant power of phosphomolybdenum structure [1]	Phosphomolybdenum Reduction Antioxidant Power (Absorbance at 600 nm ± S.S) [1]	Collagenase Enzyme Inhibition (Inhibition % ± S.S) (collagenase; 1000 μg/ml-Stock)	Metal Chelation Effect (Chelation % ± S.S) (Metal chelation effect; 1000 μg/ml)	DMPD Radical Scavenging Effect (Scavenging % ± S.S) [2]	DPPH Free Radical Scavenging Effect (Scavenging % ± S.S) [3]	Iron Reduction Antioxidant Power (Absorbance at 700 nm ± S.S) [4]	other results
NNC(=O)c1ccncc1 [Isoniazide]									MIC (M. avium (ATCC 15769); [5]): 0.125 µg/mL (≈ 0.911 µM)
O=c1cc(CO)oc(CN2CCN(Cc3ccc(Cl)c(Cl)c3)CC2)c1O [Compound of Formula 1]	No elastase enzyme inhibition is detected	0.154 ± 0.004 µg/mL	0.154 ± 0.004	15.57 ± 2.24%	67.57 ± 1.30%	36.05 ± 3.11%	14.59 ± 2.52%	0.274 ± 0.003	IC50 (tyrosinase) (tyrosinase): 11 ± 1 µg/mL; Low-dose antityrosinase activity (tyrosinase; 0.0025 mg/ml): 23.63 ± 1.65; Low-dose antityrosinase activity (tyrosinase; 0.005 mg/ml): 37.81 ± 0.54; Low-dose antityrosinase activity (tyrosinase; 0.01 mg/ml): 51.25 ± 1.09; Low-dose antityrosinase activity (tyrosinase; 0.025 mg/ml): 56.79 ± 0.44; Low-dose antityrosinase activity (tyrosinase; 0.05 mg/ml): 70.62 ± 1.62; Low-dose antityrosinase activity (tyrosinase; 0.1 mg/ml): 73.57 ± 4.81; Low-dose antityrosinase activity (tyrosinase; 0.25 mg/ml): 80.63 ± 2.01; antityrosinase effect, times higher than kojic acid (tyrosinase; relative to kojic acid): 6 times; iron chelation effect (Metal chelation effect): 67.57±1.30%; MIC (M. avium (ATCC 15769); [5]): 2 µg/mL; melting point: 180 to 181 °C; solubility in chloroform (Solubility in solvents): soluble; solubility in methanol, ethanol and acetone (Solubility in solvents): low-solubility; solubility in water (Solubility in solvents): Insoluble
O=C(O[C@@H]1Cc2c(O)cc(O)cc2O[C@@H]1c1cc(O)c(O)c(O)c1)c1cc(O)c(O)c(O)c1 [EGCG, epigallocatechin gallate]									Collagenase Enzyme Inhibition (Inhibition % ± S.S) (collagenase; 15 mM): 44.64 ± 2.87%
O=c1c(O)c(-c2ccc(O)c(O)c2)oc2cc(O)cc(O)c12 [Quercetin, quercetin]			0.320 ± 0.005				91.14 ± 0.65%	2.015 ± 0.032	
3-Hydmxy-6-(hydmxymethyl)-2-[{4-(2,6 diclorobenzyl)piperazme-1-il]methyl-4H-pyran-4-one [Compound of Formula 2]	No elastase enzyme inhibition is detected	0.187 ± 0.017 µg/mL	0.187 ± 0.017	12.40 ± 4.57%	58.17 ± 0.99%	24.94 ± 1.64%	12.20 ± 1.72%	0.217 ± 0.002	iron chelation effect (Metal chelation effect): 58.17±0.99%; MIC against M. avium (M. avium (ATCC 15769)): 2 µg/mL; solubility in chloroform (Solubility in solvents): soluble; solubility in methanol, ethanol and acetone (Solubility in solvents): Insoluble; solubility in water (Solubility in solvents): Insoluble
O=C(O)CN(CCN(CC(=O)O)CC(=O)O)CC(=O)O [EDTA, ethylenediaminetetraacetic acid]									Metal Chelation Effect (Chelation % ± S.S) (Metal chelation effect; 2000 μg/ml): 97.66±0.12%
O=C1O[C@H]([C@@H](O)CO)C(O)=C1O [Ascorbic acid]						69.58 ± 0.71%			
O=c1cc(CO)occ1O [Kojic Acid, Kojic acid]	No elastase enzyme inhibition is detected	0.103 ± 0.006 µg/mL	0.103 ± 0.006	15.18 ± 5.92%	8.89 ± 0.75%	41.86 ± 1.10%	22.51 ± 2.65%	0.757 ± 0.026	Low-dose antityrosinase activity (tyrosinase; 0.025 mg/ml): 18.65 ± 1.33; Low-dose antityrosinase activity (tyrosinase; 0.05 mg/ml): 44.74 ± 0.53; Low-dose antityrosinase activity (tyrosinase; 0.1 mg/ml): 61.28 ± 2.03; Low-dose antityrosinase activity (tyrosinase; 0.25 mg/ml): 77.44 ± 0.68; MIC (M. avium (ATCC 15769); ATCC15769, read-out: MIC against M. avium): 16 µg/mL (≈ 113 µM)
